The text below walks through data of patent EP0341019A2, “Polyether antibiotic” (priority 1988, dated 1989).

Common to all, as to type: cell-based
In experiment [1] the test system is Haemophilus influenzae C.L. To be noted: 24 h.
The subject of the next experiment is Escherichia coli N10. To be noted: N10, 24 h.
The test system of experiment [2] is Peptostreptococcus anaerobius 1451. The following applies: Peptostreptococcus anaerobius, 1451, 24 h.
The subject of experiment [3] is Bacteroides melaninogenicus 2736. To be noted: 2736, 24 h.
Experiment [4] deals with Fusobacterium symbiosum 1470. To be noted: Fusobacterium, 1470, 24 h.
The test system of a further experiment is Eimeria tenella. The experiment can be described thus: in vitro tissue-culture anticoccidial screen. The following applies: in vitro tissue-culture screen against Eimeria tenella. From the text: Anticoccidial activity is an important property of the A82810 compounds. For example, in an in vitro tissue-culture screen against Eimeria tenella, A82810 was active at <0.0025 mcg/mL, propionyl-A82810 was active at 0.05 mcg/mL and acetyl-A82810 was active at 0.01 mcg/mL.

In brackets after ≈: the same amount, converted by molar mass. Where only a bound is given, the exact number is not on record here.

As to `CC[C@@H](O)[C@]1(C)C[C@H](C)[C@@](O)([C@H]2C[C@H](C)[C@H]([C@]3(C)C[C@@H](O[C@H]4CC[C@H](OC)[C@@H](C)O4)[C@H]([C@]4(C)CC[C@@]5(O[C@H]([C@@H](C)[C@@H](OC)[C@H](C)C(=O)O)[C@H](C)[C@@H](OC)[C@H]5C)O4)O3)O2)O1` [Example A82810], the MIC in experiment [1] is 128 µg/mL (≈ 152 µM); in the experiment with Escherichia coli N10 it was 1 µg/mL (≈ 1.19 µM); in experiment [2] it was at most 0.25 µg/mL; in experiment [3], 8 µg/mL (≈ 9.49 µM); in experiment [4], 0.5 µg/mL (≈ 0.593 µM). For the same molecule, the active at in the experiment with Eimeria tenella was under 0.0025 µg/mL.
